Data published in ChEMBL document CHEMBL5126609, “Design, Synthesis, and Pharmacological Evaluation of Benzimidazolo-thiazoles as Potent CXCR3 Antagonists with Therapeutic Potential in Autoimmune Diseases: Discovery of ACT-672125” (J Med Chem, 2022).
Values after ≈ are worked out from the molar mass of the structure shown.

Tests used:
[1] = Volume of distribution in rat; type: ADME; conditions: in vivo
[2] = Unbound fraction in rat plasma by equilibrium based LC-MS/MS analysis
in vitro [3] = conditions: rat
[4] = Oral bioavailability in rat; type: ADME, organism-based; conditions: in vivo
in vivo [5] = conditions: Balb/c, mouse, po, 10 mg/kg
[6] = Toxicity in […] assessed as histopathological changes in liver at 300 mg/kg/day measured for 2 weeks; type: organism-based; conditions: in vivo, 336 h
[7] = Unbound fraction in human liver; type: ADME, tissue-based
[8] = Unbound fraction in rat liver; type: ADME, tissue-based
[9] = Volume of distribution at steady state in Wistar rat at 2 mg/kg, po; conditions: in vivo
[10] = Toxicity in rat plasma assessed as increase in indirect bilirubin level at 300 mg/kg/day measured for 2 weeks; type: organism-based; conditions: in vivo, 336 h
[11] = Toxicity in rat plasma assessed as increase in direct bilirubin level at 300 mg/kg/day measured for 2 weeks; type: organism-based; conditions: in vivo, 336 h
[12] = Volume of distribution in dog; type: ADME, Canis lupus familiaris; conditions: in vivo
[13] = Toxicity in rat plasma assessed as increase in total bilirubin level at 300 mg/kg/day measured for 2 weeks; type: organism-based; conditions: in vivo, 336 h
in vivo [14] = conditions: Balb/c, mouse, po, 10 mg/kg; remark: listed apart in the source
[15] = Mutagenicity in Salmonella typhimurium by Ames test; type: toxicity; conditions: salmonella enterica subsp. enterica serovar typhimurium
[16] = Drug concentration in LPS-induced C57BL/6 mouse plasma at 30 mg/kg, po bid; type: ADME, organism-based; conditions: in vivo
[17] = molecular target: 5-hydroxytryptamine receptor 2A (Homo sapiens, UniProt P28223); assay: Antagonist activity at 5-HT2A receptor (unknown origin)
Sequence of 5-hydroxytryptamine receptor 2A (P28223 whole entry): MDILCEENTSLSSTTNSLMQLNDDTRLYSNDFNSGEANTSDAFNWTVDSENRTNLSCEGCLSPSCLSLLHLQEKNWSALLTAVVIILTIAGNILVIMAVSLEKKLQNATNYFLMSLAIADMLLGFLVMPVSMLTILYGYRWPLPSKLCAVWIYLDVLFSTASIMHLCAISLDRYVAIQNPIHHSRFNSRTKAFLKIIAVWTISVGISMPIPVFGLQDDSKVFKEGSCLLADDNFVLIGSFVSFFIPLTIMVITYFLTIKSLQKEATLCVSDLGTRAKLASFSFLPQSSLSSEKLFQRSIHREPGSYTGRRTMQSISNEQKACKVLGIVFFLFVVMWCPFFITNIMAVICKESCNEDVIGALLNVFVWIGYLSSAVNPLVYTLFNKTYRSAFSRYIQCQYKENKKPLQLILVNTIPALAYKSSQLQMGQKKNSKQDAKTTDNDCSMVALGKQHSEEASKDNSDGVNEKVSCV

[18] = Toxicity in cynomolgus monkey assessed as increase in total bilirubin level at 300 mg/kg/day measured for 7 days; type: organism-based, Macaca fascicularis; conditions: in vivo, time 7 day
[19] = Clearance in Wistar rat at 2 mg/kg, po; conditions: in vivo
[20] = Clearance in dog relative to liver blood flow; type: ADME, Canis lupus familiaris; conditions: in vivo
[21] = molecular target: T1, C-X-C chemokine receptor type 3 (Homo sapiens, UniProt P49682); assay: Antagonist activity at human recombinant CXCR3 expressed in CHO-K1 cells measured after 10 mins in presence of CXCL10 by FLIPR analysis
T1 sequence (P49682 whole entry): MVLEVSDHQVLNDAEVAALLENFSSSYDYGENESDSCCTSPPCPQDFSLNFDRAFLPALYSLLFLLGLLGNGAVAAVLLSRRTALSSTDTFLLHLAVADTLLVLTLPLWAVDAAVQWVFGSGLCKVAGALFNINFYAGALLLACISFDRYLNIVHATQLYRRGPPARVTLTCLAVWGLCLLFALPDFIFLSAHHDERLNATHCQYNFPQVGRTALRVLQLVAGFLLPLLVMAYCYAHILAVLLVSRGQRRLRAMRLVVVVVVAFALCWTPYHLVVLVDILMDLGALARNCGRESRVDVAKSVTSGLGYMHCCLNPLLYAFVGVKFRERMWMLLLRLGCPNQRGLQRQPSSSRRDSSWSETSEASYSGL

[22] = molecular target: T1, C-X-C chemokine receptor type 3; assay: Antagonist activity at human recombinant CXCR3 in human venous blood assessed as receptor internalization measured for 30 mins in presence of CXCL10 by flow cytometric analysis
[23] = Toxicity in cynomolgus monkey assessed as increase in direct bilirubin level at 300 mg/kg/day measured for 7 days; type: organism-based, Macaca fascicularis; conditions: in vivo, time 7 day
[24] = Drug concentration in LPS-induced C57BL/6 mouse plasma at 200 mg/kg, po bid; type: ADME, organism-based; conditions: in vivo
[25] = Free maximum concentration of drug in cynomolgus monkey at 300 mg/kg/day measured on day 7; type: ADME, organism-based, Macaca fascicularis; conditions: in vivo
in vivo [26] = conditions: Wistar, rat, po, 2 mg/kg
in vivo [27] = conditions: Wistar, rat, po, 2 mg/kg; remark: listed apart in the source
[28] = Half life in Wistar rat at 0.5 mg/kg, iv; conditions: in vivo
[29] = Oral bioavailability in dog; type: ADME, organism-based, Canis lupus familiaris; conditions: in vivo
[30] = Cmax in rat plasma at 300 mg/kg/day measured on day 14; type: ADME, organism-based; design: dose 300 mg/kg/day
Hepatocyte = assay: Cytotoxicity in human hepatocyte measured up to 100 uM; type: toxicity, cell-based; conditions: hepatocytes
in vitro [31] = conditions: mouse
[32] = Unbound fraction in dog liver; type: ADME, tissue-based, Canis lupus familiaris
[33] = Cardiotoxicity in guinea pig assessed as QTc prolongation at 10 mg/kg, iv measured for 20 mins; type: toxicity, organism-based, Cavia porcellus; conditions: in vivo
in vivo [34] = conditions: Wistar, rat, po, 2 mg/kg; remark: listed apart in the source
[35] = Unbound fraction in mouse plasma by equilibrium based LC-MS/MS analysis
in vivo [36] = conditions: Balb/c, mouse, po, 10 mg/kg; remark: listed apart in the source
in vitro [37] = conditions: human
[38] = Toxicity in cynomolgus monkey assessed as increase in indirect bilirubin level at 300 mg/kg/day measured for 7 days; type: organism-based, Macaca fascicularis; conditions: in vivo, time 7 day
[39] = Drug concentration in LPS-induced C57BL/6 mouse plasma at 100 mg/kg, po bid; type: ADME, organism-based; conditions: in vivo
[40] = molecular target: cGMP-specific 3',5'-cyclic phosphodiesterase (Homo sapiens, UniProt O76074); assay: Antagonist activity at PDE5 (unknown origin)
[41] = Clearance in rat relative to liver blood flow; type: ADME; conditions: in vivo
[42] = Lipophilicity, log D of the compound at pH 7.4; conditions: buffer
[43] = Solubility of the compound in FeSSIF; conditions: simulated gi fluid
[44] = Solubility of the compound in FaSSIF; conditions: simulated gi fluid
hERG (KCNH2) = hERG (KCNH2) (Homo sapiens, UniProt Q12809); assay: Inhibition of hERG expressed in CHO cells at 3 uM at -80 mV holding potential assessed as current block incubated for 3 mins by Qpatch clamp method relative to control
Sequence of hERG (KCNH2) (Q12809 whole entry): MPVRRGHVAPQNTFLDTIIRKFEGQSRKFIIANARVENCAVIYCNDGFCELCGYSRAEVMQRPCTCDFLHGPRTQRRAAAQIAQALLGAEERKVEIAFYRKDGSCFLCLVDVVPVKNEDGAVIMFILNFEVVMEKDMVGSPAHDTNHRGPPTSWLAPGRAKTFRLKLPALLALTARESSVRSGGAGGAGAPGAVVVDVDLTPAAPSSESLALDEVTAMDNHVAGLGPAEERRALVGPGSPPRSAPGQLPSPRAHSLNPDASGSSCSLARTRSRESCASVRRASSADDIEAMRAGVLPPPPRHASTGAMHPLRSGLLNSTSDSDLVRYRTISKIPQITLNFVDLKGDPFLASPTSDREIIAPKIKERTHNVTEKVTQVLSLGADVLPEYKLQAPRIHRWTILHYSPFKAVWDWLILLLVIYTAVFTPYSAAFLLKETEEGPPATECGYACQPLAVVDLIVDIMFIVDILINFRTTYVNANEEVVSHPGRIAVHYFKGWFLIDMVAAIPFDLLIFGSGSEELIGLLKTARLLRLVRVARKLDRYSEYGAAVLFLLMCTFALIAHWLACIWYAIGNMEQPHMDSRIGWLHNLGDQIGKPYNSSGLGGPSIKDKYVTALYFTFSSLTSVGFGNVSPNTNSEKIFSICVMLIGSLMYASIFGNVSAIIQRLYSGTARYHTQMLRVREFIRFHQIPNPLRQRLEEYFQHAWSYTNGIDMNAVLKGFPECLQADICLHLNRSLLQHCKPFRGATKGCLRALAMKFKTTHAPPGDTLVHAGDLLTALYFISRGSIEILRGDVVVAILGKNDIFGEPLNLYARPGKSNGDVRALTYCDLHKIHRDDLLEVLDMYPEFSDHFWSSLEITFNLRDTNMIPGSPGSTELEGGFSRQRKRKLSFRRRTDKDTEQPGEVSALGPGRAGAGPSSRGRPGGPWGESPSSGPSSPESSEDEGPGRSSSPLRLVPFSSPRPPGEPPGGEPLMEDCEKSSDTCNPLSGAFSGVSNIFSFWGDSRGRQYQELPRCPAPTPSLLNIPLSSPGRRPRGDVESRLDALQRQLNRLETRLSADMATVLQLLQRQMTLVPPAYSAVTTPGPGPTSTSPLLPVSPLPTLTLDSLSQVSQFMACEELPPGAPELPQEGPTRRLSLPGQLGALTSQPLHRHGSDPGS

[45] = Unbound fraction in human plasma by equilibrium based LC-MS/MS analysis
[46] = molecular target: Voltage-gated inwardly rectifying potassium channel KCNH2 (Homo sapiens, UniProt Q12809); assay: Inhibition of hERG by Qpatch-clamp method
Sequence of Voltage-gated inwardly rectifying potassium channel KCNH2 (Q12809 whole entry): as above

[47] = Clearance in Balb/c mouse at 10 mg/kg, po; conditions: in vivo
[48] = Half life in Balb/c mouse at 1 mg/kg, iv; conditions: in vivo
[49] = Half life in Wistar rat at 0.2 mg/kg, iv; conditions: in vivo

Cc1nc(C)n(CC(=O)N2CCN(c3sc(C(F)(F)F)nc3-c3nc4ccc(-c5noc(C)n5)cc4[nH]3)C[C@H]2C)n1 showed a Vd [1] of 1.1 L/kg, a fraction unbound [2] of 0.029 and a microsomal CLint at 0.25 h, 1 µM (in vitro [3]; liver microsomes) of 47 µL/min/mg. For the same compound, the bioavailability [4] was 48%, the AUC (in vivo [5]) was 6600 ng·h/mL and the Activity [6] was “Non-Toxic”. The fraction unbound [7] was 0.038, the fraction unbound [8] was 0.029 and the Vdss [9] was 1 L/kg. For the same compound, the Activity [10] was “Toxic”, the Activity [11] was “Toxic” and the Vd [12] was 2.2 L/kg. The Activity [13] was “Toxic”, the Cmax (in vivo [14]) was 3140 ng/mL and the Activity [15] was “Non-Toxic”. The Cp [16] was 30 ng/mL, the IC50 [17] was 16000 nM and the Activity [18] was “Toxic”. For the same compound, the CL/F [19] was 14 mL/min/kg, the CLH [20] was 11% and the IC50 [21] was 2.5 nM. For the same compound, the IC50 [22] was 239 nM, the Activity [23] was “Toxic” and the Cp [24] was 14630 ng/mL. It also gave a fCmax [25] of 1.4 µM, an AUC (in vivo [26]) of 1160 ng·h/mL and a bioavailability (in vivo [27]) of 0.5%. The half-life [28] was 72 min, the bioavailability [29] was 57% and the Cmax [30] was 3.5 µM. The Activity (Hepatocyte) was “Non-Toxic”, the microsomal CLint at 0.25 h, 1 µM (in vitro [31]; liver microsomes) was 21 µL/min/mg and the fraction unbound [32] was 0.106. The Activity [33] was “Non-Toxic”, the Tmax (in vivo [34]) was 15 min and the fraction unbound [35] was 0.024. For the same compound, the Tmax (in vivo [36]) was 15 min, the microsomal CLint at 0.25 h, 1 µM (in vitro [37]; liver microsomes) was less than 10 µL/min/mg and the Activity [38] was “Toxic”. For the same compound, the Cp [39] was 250 ng/mL, the IC50 [40] was 8700 nM and the CLH [41] was 10%.

For C[C@@H]1CN(c2sc(C(F)(F)F)nc2-c2nc3ccccc3[nH]2)CCN1C(=O)Cn1cnc2cccnc21, the fraction unbound [2] was 0.017, the microsomal CLint at 0.25 h, 1 µM (in vitro [3]; microsomes) was 104 µL/min/mg and the logD [42] was 3.9. For the same compound, the Cmax (in vivo [14]) was 27900 ng/mL, the solubility [43] was 214 µg/mL (≈ 406 µM) and the solubility [44] was 13 µg/mL (≈ 24.7 µM). For the same compound, the inhibition at 0.05 h, 3 µM (hERG (KCNH2)) was 70%, the microsomal CLint at 0.25 h, 1 µM (in vitro [31]; microsomes) was 104 µL/min/mg and the fraction unbound [45] was 0.023. It also gave an IC50 [46] of 1400 nM, a fraction unbound [35] of 0.01 and a microsomal CLint at 0.25 h, 1 µM (in vitro [37]; microsomes) of 89 µL/min/mg. The CL/F [47] was 41 mL/min/kg and the half-life [48] was 13.2 min.

With COc1cc2nc(-c3nc(C(F)(F)F)sc3N3CCN(C(=O)Cn4cnc5cccnc54)[C@H](C)C3)[nH]c2cc1OC the fraction unbound [2] was 0.042, the microsomal CLint at 0.25 h, 1 µM (in vitro [3]; microsomes) was 53 µL/min/mg and the solubility [43] was 731 µg/mL (≈ 1250 µM). For the same compound, the CL/F [19] was 49 mL/min/kg, the IC50 [21] was 3.2 nM and the half-life [49] was 30 min. It also gave an IC50 [22] of 144 nM, an AUC (in vivo [26]) of 196 ng·h/mL and a bioavailability (in vivo [27]) of 29%. It also gave an inhibition at 0.05 h, 3 µM (hERG (KCNH2)) of 20%, a Tmax (in vivo [34]) of 30 min and a microsomal CLint at 0.25 h, 1 µM (in vitro [37]; microsomes) of 30 µL/min/mg.
